Entries after “also recorded” stand apart in the source; their conditions may differ. Ends that are not written are not given here.
How the values were obtained:
[1] = tested on: chick aortic arches; experiment: Chick aortic arch vessel sprouting assay; format: cell-based; design: key to Sprouting: − = no activity; +/− = low activity; + = active; ++ = high activity; conditions: for effect of actin on thymosin β4-mediated sprouting: 5-50 nM
Procedure: Chick aortic arch assay—The aortic arch of 13-day-old chick embryos was removed and placed in RPMI 1640. After removal of surrounding connective tissue, transverse sections of the arch were made (1 mm). The resulting aortic rings were carefully attached to the bottom of a 48-well plate, one ring per well, with 20-30 μl of Matrigel (Collaborative Biomedical Products). The rings were placed so that the lumen of each ring could be seen. More Matrigel was added onto the top of the rings to seal them in place. A 100 μl volume of human endothelial—SFM basal growth medium (Invitrogen) containing 1% penicillin streptomycin was added to each well. Thymosin β4, peptide fragments, and exogenous actin (Sigma Chemical Co.) were added to wells in serum-free medium, bringing the final volume of each well to 400 μl. ECGS (200 μg/ml) was used as a positive control. The plates were incubated for 24 hr at 37° C. Rings were fixed and stained with Diff-Quik solution II. Sprouting was scored in a blind assessment by an observer using 10× magnification on an Olympus microscope. Six wells were used for each condition tested, and each assay was done three times.

[2] = tested on: HUVEC; experiment: HUVEC cell adhesion assay; format: cell-based, human
Procedure: (§1) Cells—HUVECs were isolated and used at passages 2-5. Grant et al., J. Cell Sci. 108:3685-3694 (1995). The cells were cultured in RPMI 1640 (Invitrogen, Carlsbad, Calif.) supplemented with 20% bovine calf serum (Hyclone Laboratories, Logan, Utah), 200 μg/ml of endothelial cell growth supplement (ECGS) (Collaborative Biomedical Products, Bedford, Mass.), 0.8 U/ml heparin sodium (Fisher Scientific, Pittsburgh, Pa.), penicillin/streptomycin (Invitrogen, Carlsbad, Calif.), 10 μg/ml gentamycin (Invitrogen, Carlsbad, Calif.), and 1% fungizone (Invitrogen, Carlsbad, Calif.).
Cell adhesion—In order to determine which ions are needed for HUVEC adhesion, Laminin-1 peptide (25 ng in 50 μl) and two test concentrations of Tβ4 (100 ng and 500 ng in 50 μl) in 0.1 M carbonate buffer, pH 9.4, were bound to the bottom of U-bottom 96-well plates overnight at 4° C. Wells were then washed twice with PBS and blocked with 150 μl of 3% BSA in PBS (Sigma Chemical Co., St. Louis, Mo.) at room temperature for 30 min. […] The remaining cells were stained with 0.2% crystal violet in 20% methanol, washed in water to remove excess stain, dried overnight at 37° C., and lysed with 10% SDS for 10 min, and the plate OD was read at 600 nm. (Molecular Devices precision microplate reader). […]

[3] = tested on: male and female androgenetic patients; conditions: human, in vivo; cited from earlier work
[4] = tested on: hair follicles; experiment: Topical thymosin β4 or T-3 on shaved aged BALB/c mice; format: in vivo, mouse; conditions: 5 μg/50 μl in water
Procedure: These mice are considered highly aged as they are alive beyond the normal mouse life expectancy. […] The mice were shaved and treated as described above with thymosin β4 at the time of shaving and 48 hours later. At day 7, the skin was harvested and examined histologically, as described above in Example 1.
The T-3 fragment was produced using an automated peptide synthesizer, as is well known in the art.
The synthetic T-3 peptide was applied in a water solution/mixture at a concentration/dose of 5 μg/50 μl. […] Thus, a fragment of thymosin β4 comprising these amino acids is useful in hair regeneration compositions.

[5] = tested on: human umbilical vein endothelial cells; experiment: HUVEC migration, Boyden chamber assay; format: cell-based
Procedure: as §1
Boyden chamber assay—HUVEC migration assays were conducted in a 48-well micro-chemotaxis chamber (Neuro Probe Inc., Cabin John, Md.) as previously described in Salcedo et al., J. Immunol. 166:7571-7578 (2001). Briefly, PVP-free polycarbonate membranes with 8 μm pores were coated with 50 μg/ml of rat tail collagen (BD Biosciences, Bedford, Mass.) in RPMI 1640 that contained 25 mM HEPES (Invitrogen, Carlsbad, Calif.) at 4° C. overnight. The membranes were dried at least 1 hr prior to use. HUVECs were serum-starved for 2 hr, harvested using Versene (Invitrogen, Carlsbad, Calif.), and resuspended in binding medium that contained RPMI 1640 with 1% BSA and 25 mM HEPES. The lower wells of the chamber were loaded with 1, 10, 100, and 1000 ng/ml of thymosin β4 or peptide fragments that were diluted in binding medium. Basic fibroblast growth factor (bFGF) (200 ng/ml) was used as a positive control. Cells were added to the upper portion of the chamber at a concentration of 50,000 cells per well. The chambers were incubated at 37° C. for 4 hr. The filters were fixed and stained using Diff-Quik (VWR, Bridgeport, N.J.). The cells that successfully migrated through the pores of the membrane were manually quantitated using a CK-2 Olympus microscope at 10× magnification. Each condition was assayed in triplicate, and the assay was repeated twice.

| Compound | vessel sprouting, in words [1] | effect of actin on ECGS-mediated vessel sprouting ([1]; exogenous actin added) | effect of actin on thymosin β4-mediated sprouting ([1]; exogenous actin added) | effect of actin on thymosin β4-mediated sprouting ([1]; exogenous actin added, listed as soluble actin) | effect of actin on laminin-1-mediated adhesion ([2]; control) | effect of actin on cell adhesion to thymosin β4 ([2]; soluble actin added, 5-50 nM) | side effects [3] | hair follicle development vs water alone [4] | Sprouting ([1]; Table 2 score) | activity in the assays (endothelial cell migration and vessel sprouting) ([1]; statement covers both migration and sprouting assays) | endothelial cell migration, in words [5] |
| --- | --- | --- | --- | --- | --- | --- | --- | --- | --- | --- | --- |
| actin [reference compound] | angiogenic activity | did not inhibit | significantly inhibited | inhibited | no effect | inhibited; also recorded: blocked adhesion | – | – | – | – | – |
| Nc1cc(N2CCCCC2)nc(N)[n+]1[O-] [minoxidil] | – | – | – | – | – | – | scalp irritation and increased facial hair | – | – | – | – |
| LKKTETQ [Peptide T-3] | fully active | – | – | – | – | – | – | increased hair follicle development | ++ | generally highly active | fully active |
